Data on two compounds can be found in US8664267B2 (Academic Pharmaceuticals Incorporated, priority 2007, dated 2014).

One series has as its system dog. Particulars: Torres-Arrault et al. 1984, cited from earlier work.
For series [1] the following is noted: administered intravenously; cited from earlier work.

Structures are written as SMILES.

As for `CCCCCCCC/C=C\CCCCCCCC(=O)OCCOCC(OCCO)C1OCC(OCCO)C1OCCO` (stereo not shown) [Tween-80, polysorbate 80], the cardiac depressant effect result with dog is “potent cardiac depressant”. For the same compound, the hypotension entry with dog (dog) was “causes hypotension”.

With `CCCCc1oc2ccccc2c1C(=O)c1cc(I)c(OCCN(CC)CC)c(I)c1` [amiodarone, 2-n-butyl-3-(3,5-diiodo-4-β-N-diethylaminoethoxy-benzoyl)benzofuran], the “dose-dependent suppression of arrhythmias compared with the saline control group” value in the series on Coronary Occlusion (Rat) is reported as “significantly different”. Also, the “onset of action and hemodynamic and electrophysiological effect” value in series [1] was “rapid onset of action causing profound hemodynamic and electrophysiological effect”.
